Assay results: patent US20180057580A1, “ANTI-GREMLIN-1 (GREM1) ANTIBODIES AND METHODS OF USE THEREOF FOR TREATING PULMONARY ARTERIAL HYPERTENSION” (priority 2016, published 2018)

What was measured:
[1] = test system: Sugen 5416/chronic hypoxia mouse model; experiment: Study 3: 6 weeks Sugen5416/chronic hypoxia mouse model of pulmonary hypertension, ultrasound assessment; assay type: in vivo
Description: Eleven to thirteen week old Taconic C57BL/6 mice were used. Mice were separated into treatment groups by weight such that starting body weights were similar among different groups. Cages were selected to either remain at about 21% O2 (normobaric normoxia) or placed into 10% O2 (normobaric hypoxia) chamber (a modified 3′ Semi-Rigid Isolator unit, Charles River) that maintained low O2 levels with adjustment of N2 flow to a steady intake of room air. Mice were administered Sugen5416 (Sigma, Cat#58442; VEGFR inhibitor subcutaneously at 20 mg/kg weekly for 6 weeks) and drugs or saline starting on day 21. A group of mice (n=10) housed in normobaric normoxia cages were subcutaneously administered saline at 5 mL/kg twice per week for three weeks, while mice housed in normobaric hypoxia cages were separated into 5 treatment groups including a group of mice (n=10) subcutaneously treated with saline at 5 mL/kg twice per week for three weeks, a group of mice (n=9) orally administered Bosentan (Sequoia Research Products Cat SRP02325b) at 300 mg/kg every day for three weeks, a group of mice (n=10) subcutaneously administered an isotype control antibody at 25 mg/kg twice per week for three weeks, a group of mice (n=10) subcutaneously treated with the anti-Gremlin-1 antibody at 25 mg/kg twice a week for three weeks, a group of mice (n=9) subcutaneously treated with an anti-Gremlin-1 antibody at 25 mg/kg twice a week for three weeks and orally administered Bosentan at 300 mg/kg every day for three weeks. [table] On the last day of the study, pulmonary artery size and right ventricular function and dimensions were assessed in each mouse using a high frequency ultrasound system (Vevo 2100, VisualSonics). For the assessment, mice were anesthetized (with 1.5% isoflurane at a rate of 1.0 cc/mL of medical grade air) and their temperature was monitored with a rectal temperature probe and held at approximately 37° C. with a heated platform (MouseMonitorS, Indus Instruments) and a warming lamp. Both brightness-mode (B-mode) and motion-mode (M-mode) imaging were used. B-mode imaging of the mouse heart in cross-section was used to determine pulmonary artery cross-sectional area (PA CSA) at the level of the pulmonary valve. M-mode imaging was used to determine the pulsed wave velocity time integral (VTI), which is derived from the area under the curve of representative Doppler tracings of blood flow through the pulmonary artery. Right ventricular stroke volume (RV SV) was calculated from the product of PA CSA and VTI. Right ventricular cardiac output (RV CO) was calculated from the product of SV and heart rate (HR). M-mode imaging was used to determine right ventricular free wall (RVFW) thickness during diastole and systole. Animals were returned to their home cages before right ventricular pressure assessment.

[2] = test system: chronic hypoxia-induced pulmonary arterial hypertension mouse model; experiment: Study 1: 4 week chronic hypoxia mouse model of pulmonary arterial hypertension, ultrasound assessment; assay type: in vivo; details: study not given
Text: For both studies, eleven to thirteen-week-old Taconic C57BL/6 mice were used. Mice were separated into treatment groups by weight such that starting body weights were similar among different groups. Cages were selected to either remain at about 21% O2 (normobaric normoxia) or placed into a 10% O2 (normobaric hypoxia) chamber (a modified 3′ Semi-Rigid Isolator unit, Charles River) that maintained low O2 levels with adjustment of N2 flow to a steady intake of room air.
For the first study (Study 1), mice were administered drugs or saline starting on day 14. […]
On the last day of each study, pulmonary artery size and right ventricular function and dimensions were assessed in each mouse using a high frequency ultrasound system (Vevo 2100, VisualSonics). For the assessment, mice were anesthetized (with 1.5% isoflurane at a rate of 1.0 cc/mL of medical grade air) and their temperature was monitored with a rectal temperature probe and held at approximately 37° C. with a heated platform (MouseMonitorS, Indus Instruments) and a warming lamp. […] Right ventricular stroke volume (RV SV) was calculated from the product of PA CSA and VTI. Right ventricular cardiac output (RV CO) was calculated from the product of SV and heart rate (HR). […]

[3] = Study 3, normobaric hypoxia + Sugen5416 6 weeks, 300 mg/kg PO daily from day 21

Molecule	PA CSA greater than hypoxic saline-treated group ([1]; Study 3, Sugen5416/hypoxia, 300 mg/kg PO daily, significant)	Heart rate (Ave ± SEM) [1, 3]	PA CSA (Ave ± SEM) [1, 3]	Right Ventricular cardiac output (Ave ± SEM) [1, 3]	Stroke Volume (Ave ± SEM) [1, 3]	Pulmonary artery size (cross-sectional area), result in words ([2]; FIG. 1A legend)	Right ventricular stroke volume, result in words ([2]; FIG. 1B legend)
COc1ccccc1Oc1c(NS(=O)(=O)c2ccc(C(C)(C)C)cc2)nc(-c2ncccn2)nc1OCCO [Bosentan]	~43%	509.7 ± 18.9 beats/min	1.724 ± 0.074^%%% mm^2	17.81 ± 1.46^%% ml/min	35.51 ± 3.22^%% ul		
H4H6245P: fully human anti-GREM1 antibody, HCVR/LCVR SEQ ID NOs 434/442; relation to H4H6245P2 not stated (antibody, V domains shown) VH: EVQLVESGGGLVQPGGSLRLSCAASGFTFNSFWMSWVRQAPGKGLEWVANIKQDGSEKYYVDSVKGRFTISRDNAKNSVYLQMNSLRAEDTAVYYCARDLVTSFDYWGQGTLVTVSS VL: DIQMTQSPSSLSASVGDRVTITCQASQDINNYLNWYQQKPGKAPKLLIYDASYLETGVPSGFSGSGSGTDFTFTISSLQPEDIATYYCQQYDSLPYTFGQGTKLEIK						near normoxic levels	near normoxic levels
